For 27 compounds, inhibition results are on record in patent US20220289679A1, “HETEROCYCLIC COMPOUND” (Takeda Pharmaceutical Company Limited, priority 2019, published 2022).

The target in the assay is T1, human GCS (glucosylceramide synthase) (Homo sapiens, UniProt Q16739).
T1 construct: made in house; host or cells: Expi293F cells (transient expression; microsome fraction)
T1 sequence (Q16739 1-394): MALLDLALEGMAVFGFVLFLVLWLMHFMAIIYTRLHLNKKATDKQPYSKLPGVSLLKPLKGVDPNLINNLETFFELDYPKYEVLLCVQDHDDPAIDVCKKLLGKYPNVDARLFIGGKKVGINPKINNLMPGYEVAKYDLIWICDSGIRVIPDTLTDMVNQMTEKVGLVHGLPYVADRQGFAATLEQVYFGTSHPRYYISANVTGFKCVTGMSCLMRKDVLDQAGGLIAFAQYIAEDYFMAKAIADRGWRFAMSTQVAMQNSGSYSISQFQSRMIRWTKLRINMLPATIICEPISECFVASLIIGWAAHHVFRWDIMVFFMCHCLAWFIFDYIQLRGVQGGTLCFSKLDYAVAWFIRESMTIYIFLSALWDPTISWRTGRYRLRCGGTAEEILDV
The assay is described as follows: Glucosylceramide Synthase (GCS) Assay. The format is biochemical. The note with it: test compound 10 μM; microsome fraction of Expi293F cells expressing human GCS; 1.7 μM UDP-glucose, 3 μM C8 ceramide; room temperature 60 min; C8 glucosylceramide by Rapidfire MS/MS; read-out: GCS enzyme inhibitory rate at 10 μM (%). A digest of the protocol: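 Test compounds were run at a final 10 μM against liposomal C8 ceramide (3 μM) and UDP-glucose at its Km (1.7 μM). Human GCS came as microsomes from transfected Expi293F cells, incubated 60 min at room temperature, pH 7.5. Product measured by RapidFire MS/MS; 0% and 100% inhibition were DMSO and no-enzyme wells.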
`Cc1cc(C(=O)Nc2ccc(C(C)(C)O)nc2)c(=O)n(-c2ccccc2OCC(F)(F)F)n1` [Example 129, N-[6-(2-hydroxypropan-2-yl)pyridin-3-yl]-6-methyl-3-oxo-2-[2-(2,2,2-trifluoroethoxy)phenyl]-2,3-dihydropyridazine-4-carboxamide]: the inhibition at 10 µM amounted to 99%. As for `CC(C)(O)c1ccc(NC(=O)c2ccnn(-c3ccc(F)cc3OCC(F)(F)F)c2=O)cc1` [Example 95, 2-[4-fluoro-2-(2,2,2-trifluoroethoxy)phenyl]-N-[4-(2-hydroxypropan-2-yl)phenyl]-3-oxo-2,3-dihydropyridazine-4-carboxamide], the figure is 99%; as for `CC(C)(O)c1ccc(NC(=O)c2ccnn(-c3ccccc3OCC(F)F)c2=O)nc1` [Example 132, 2-[2-(2,2-difluoroethoxy)phenyl]-N-[5-(2-hydroxypropan-2-yl)pyridin-2-yl]-3-oxo-2,3-dihydropyridazine-4-carboxamide], 96%. `CC(C)(O)c1ccc(NC(=O)c2ccnn(-c3ccc(F)cc3OCC(F)(F)C(F)(F)F)c2=O)cc1` [Example 106, 2-[4-fluoro-2-(2,2,3,3,3-pentafluoropropoxy)phenyl]-N-[4-(2-hydroxypropan-2-yl)phenyl]-3-oxo-2,3-dihydropyridazine-4-carboxamide]: the inhibition at 10 µM stood at 99%.

Regarding `O=C(Nc1ccc(C(O)(C(F)F)C(F)F)nc1)c1ccnn(-c2ccccc2OCC(F)(F)F)c1=O` [Example 162, 3-oxo-N-[6-(1,1,3,3-tetrafluoro-2-hydroxypropan-2-yl)pyridin-3-yl]-2-[2-(2,2,2-trifluoroethoxy)phenyl]-2,3-dihydropyridazine-4-carboxamide], the inhibition at 10 µM came to 100%. As for `O=C(Nc1ccc(C2(O)CC2)cc1)c1cccn(-c2ccc(F)cc2OCC(F)(F)F)c1=O` [Example 69, 1-[4-fluoro-2-(2,2,2-trifluoroethoxy)phenyl]-N-[4-(1-hydroxycyclopropyl)phenyl]-2-oxo-1,2-dihydropyridine-3-carboxamide], the figure is 99%; as for `O=C(Nc1cnc(C(F)(F)F)nc1)c1cccn(-c2ccc(F)cc2OCC(F)(F)F)c1=O` [Example 36, 1-[4-fluoro-2-(2,2,2-trifluoroethoxy)phenyl]-2-oxo-N-[2-(trifluoromethyl)pyrimidin-5-yl]-1,2-dihydropyridine-3-carboxamide], 86%.

Take `O=C(Nc1ccc(C(O)(C(F)F)C(F)F)nc1)c1cn(CC(F)F)nc(-c2ccccc2OCC(F)F)c1=O` [Example 186, 6-[2-(2,2-difluoroethoxy)phenyl]-2-(2,2-difluoroethyl)-5-oxo-N-[6-(1,1,3,3-tetrafluoro-2-hydroxypropan-2-yl)pyridin-3-yl]-2,5-dihydropyridazine-4-carboxamide]: the inhibition at 10 µM is 100%.

On to `CC(C)(O)c1ccc(NC(=O)c2ccnn(-c3ccccc3OCC(F)(F)F)c2=O)cc1` [Example 127, N-[4-(2-hydroxypropan-2-yl)phenyl]-3-oxo-2-[2-(2,2,2-trifluoroethoxy)phenyl]-2,3-dihydropyridazine-4-carboxamide], for which the inhibition at 10 µM is 100%. As for `CC(C)(C#N)c1ccc(NC(=O)c2cn(C3CC3)nc(-c3ccccc3OCC(F)F)c2=O)cc1` [Example 192, N-[4-(2-cyanopropan-2-yl)phenyl]-2-cyclopropyl-6-[2-(2,2-difluoroethoxy)phenyl]-5-oxo-2,5-dihydropyridazine-4-carboxamide], the figure is 100%; as for `Cn1cc(C(=O)Nc2ccc(C(O)(C(F)F)C(F)F)nc2)c(=O)c(-c2ccccc2OCC(F)F)n1` [Example 176, 6-[2-(2,2-difluoroethoxy)phenyl]-2-methyl-5-oxo-N-[6-(1,1,3,3-tetrafluoro-2-hydroxypropan-2-yl)pyridin-3-yl]-2,5-dihydropyridazine-4-carboxamide], 100%; as for `CC(C)(O)c1ccc(NC(=O)c2cccn(-c3ccccc3OCC(F)(F)F)c2=O)cc1` [Example 63], 100%. As for `COc1cc(F)ccc1-n1nccc(C(=O)Nc2ccc(OCC(F)(F)F)nc2)c1=O` [Example 23, 2-(4-fluoro-2-methoxyphenyl)-3-oxo-N-[6-(2,2,2-trifluoroethoxy)pyridin-3-yl]-2,3-dihydropyridazine-4-carboxamide], the figure is 87%; as for `CC(C)(O)c1cc(C(=O)Nc2ccc(OC(F)F)cc2)c(=O)n(-c2ccccc2OCC(F)(F)F)n1` [Example 200, N-[4-(difluoromethoxy)phenyl]-6-(2-hydroxypropan-2-yl)-3-oxo-2-[2-(2,2,2-trifluoroethoxy)phenyl]-2,3-dihydropyridazine-4-carboxamide], 99%; as for `CC(C)(C#N)c1ccc(NC(=O)c2cn(C3COC3)nc(-c3ccccc3OCC(F)F)c2=O)cc1` [Example 191, N-[4-(2-cyanopropan-2-yl)phenyl]-6-[2-(2,2-difluoroethoxy)phenyl]-2-(oxetan-3-yl)-5-oxo-2,5-dihydropyridazine-4-carboxamide], 100%. Take `Cc1cc(C(=O)Nc2ccc(C(C)(C)O)nc2)c(=O)n(-c2ccccc2OCC(F)F)n1` [Example 135, 2-[2-(2,2-difluoroethoxy)phenyl]-N-[6-(2-hydroxypropan-2-yl)pyridin-3-yl]-6-methyl-3-oxo-2,3-dihydropyridazine-4-carboxamide]: the inhibition at 10 µM is 98%. As for `O=C(Nc1ccn(CC(F)(F)F)n1)c1cccn(-c2ccccc2OCC(F)(F)F)c1=O` [Example 22, 2-oxo-1-[2-(2,2,2-trifluoroethoxy)phenyl]-N-[1-(2,2,2-trifluoroethyl)-1H-pyrazol-3-yl]-1,2-dihydropyridine-3-carboxamide], the figure is 77%; as for `CC(C)(O)COc1ccc(NC(=O)c2cccn(-c3ccccc3OCC(F)(F)F)c2=O)cc1` [Example 70, N-[4-(2-hydroxy-2-methylpropoxy)phenyl]-2-oxo-1-[2-(2,2,2-trifluoroethoxy)phenyl]-1,2-dihydropyridine-3-carboxamide], 97%. Next, `O=C(Nc1ccc(C(F)(F)F)nc1)c1cccn(-c2ccccc2OCC(F)(F)F)c1=O` [Example 20, 2-oxo-1-[2-(2,2,2-trifluoroethoxy)phenyl]-N-[6-(trifluoromethyl)pyridin-3-yl]-1,2-dihydropyridine-3-carboxamide]: 100%. As for `COc1cc(F)ccc1-n1cccc(C(=O)Nc2ccc(N3CCOCC3)cc2)c1=O` [Example 19, 1-(4-fluoro-2-methoxyphenyl)-N-[4-(morpholin-4-yl)phenyl]-2-oxo-1,2-dihydropyridine-3-carboxamide], the figure is 55%. Take `O=C(Nc1ccc(C2(O)CCC2)cc1)c1cccn(-c2ccc(F)cc2OCC(F)(F)F)c1=O` [Example 97, 1-[4-fluoro-2-(2,2,2-trifluoroethoxy)phenyl]-N-[4-(1-hydroxycyclobutyl)phenyl]-2-oxo-1,2-dihydropyridine-3-carboxamide]: the inhibition at 10 µM stood at 99%.

On to `CC(C)(O)c1ccc(NC(=O)c2ccnn(-c3ccccc3OCC(F)(F)F)c2=O)cn1` [Example 126, N-[6-(2-hydroxypropan-2-yl)pyridin-3-yl]-3-oxo-2-[2-(2,2,2-trifluoroethoxy)phenyl]-2,3-dihydropyridazine-4-carboxamide], for which the inhibition at 10 µM was found to be 97%. Next, `N#CCc1ccc(NC(=O)c2cccn(-c3ccc(F)cc3OCC(F)(F)F)c2=O)cc1` [Example 57, N-[4-(cyanomethyl)phenyl]-1-[4-fluoro-2-(2,2,2-trifluoroethoxy)phenyl]-2-oxo-1,2-dihydropyridine-3-carboxamide]: 95%; `CC(C)(O)c1ccc(NC(=O)c2cccn(-c3ccc(F)cc3OCC(F)F)c2=O)cc1` [Example 102, 1-[2-(2,2-difluoroethoxy)-4-fluorophenyl]-N-[4-(2-hydroxypropan-2-yl)phenyl]-2-oxo-1,2-dihydropyridine-3-carboxamide]: 98%.

For the compound `O=C(Nc1ccc(CN2CCOCC2)cc1)c1cccn(-c2ccc(F)cc2OCC(F)(F)F)c1=O` [Example 35, 1-[4-fluoro-2-(2,2,2-trifluoroethoxy)phenyl]-N-{4-[(morpholin-4-yl)methyl]phenyl}-2-oxo-1,2-dihydropyridine-3-carboxamide], the inhibition at 10 µM was found to be 85%. As to `O=C(Nc1ccc(C(O)(C(F)F)C(F)F)nc1)c1cn(CC2COC2)nc(-c2ccccc2OCC(F)F)c1=O` [Example 188, 6-[2-(2,2-difluoroethoxy)phenyl]-2-[(oxetan-3-yl)methyl]-5-oxo-N-[6-(1,1,3,3-tetrafluoro-2-hydroxypropan-2-yl)pyridin-3-yl]-2,5-dihydropyridazine-4-carboxamide], the inhibition at 10 µM stood at 99%. On to `CC(C)(O)Cn1cc(C(=O)Nc2ccc(C(O)(C(F)F)C(F)F)nc2)c(=O)c(-c2ccccc2OCC(F)F)n1` [Example 178, 6-[2-(2,2-difluoroethoxy)phenyl]-2-(2-hydroxy-2-methylpropyl)-5-oxo-N-[6-(1,1,3,3-tetrafluoro-2-hydroxypropan-2-yl)pyridin-3-yl]-2,5-dihydropyridazine-4-carboxamide], for which the inhibition at 10 µM was determined as 97%.
